According to US4853384A, “1-carbonyl derivatives of 4-aryl-4-aryloxypiperidines” (Hoechst-Roussel Pharmaceuticals Inc., priority 1988, dated 1989):

Key:
Type in all cases: in vivo, mice (male, Charles River, CD-1)
mice [1] = assay: phenyl-p-quinone (phenyl-p-benzoquinone) writhing assay in mice, analgesia
Procedure: The procedure employed to determine analgetic utility is a modification of the phenyl-p-benzoquinone writhing assay in mice, a standard assay for analgesia [Proc. Soc. Exptl. Bio. […] The solution is administered to the subject mice intraperitoneally at a dose of 10 ml per kg of body weight. A characteristic "writhe" an inward rotation of one or more feet with twisting and turning of the trunk, drawing in of the abdominal wall, lordosis and arching of the back, is produced. A total of 28 male mice (Charles River, CD-1), weighing 18 to 30 grams, are employed for a time response. The subject animals receive food and water ad libitum. Test compounds are dissolved in distilled water, or suspended in distilled water containing one drop of a suitable surfactant, such as Tween-80. […] A control group (2 animals per group) receive an equal volume of the vehicle. After the administration of the phenyl-p-quinone, the mice are place separately in one liter beakers, and after five minutes, are observed for ten minutes. The number of writhes for each animal is recorded. The following formula is used to compute the percent inhibition: [formula] The time period with the greatest percent of inhibition is considered the peak time.

mice [2] = assay: supramaximal electroshock (SES) assay, anticonvulsant activity; conditions: Mus musculus, ip
Procedure: (§1) The compounds of this invention are also useful as anticonvulsants due to their anticonvulsant activity in mammals. Anticonvulsant activity is measured in male mice using the supramaximal electroshock (SES) assay described in Arch. Int. Pharmacodyn. 92, pp. 97-107, (1952) and the metrazol lethality assay (MTZ) described in J. Pharmacol. Exp. Ther., 81, 402 (1944).
Groups of male mice (Charles River, CD-1) weighing 18 to 30 g are employed in the SES assay. Test compounds are dissolved in distilled water, or if insoluble, suspended in water containing one drop of a surfactant, such as Tween-80. Test compounds are generally administered intraperitoneally at a dose of 10 ml of solution, or suspension, per kg of animal body weight. The output terminals of an A.C. shocker, which delivers 206 volts rms for 300 msec, are placed across the animals' eyes, an electrode paste coating assuring contact of the terminals with the eyes. The test compound is administered and thereafter the subject animals are shocked.
Protection is expressed as normalized percent inhibition relative to vehicle control. [formula] A time response is carried out using 6 animals per group. Animals are tested at 30, 60 and 120 minutes post drug. Additional time periods are tested if indicated by previous tests. A dose range determination is generally reserved for those compounds which inhibit convulsions by greater than about 45-55% at the screening dose employed at the time the test was performed. When the peak activity time has been determined, a dose response is initiated, using 10 animals per group at that time period.
(§2) The anticonvulsant activity of several of the compounds of this invention as per the SES and MTZ assay procedures is provided in Table 2.

mice [3] = assay: Metrazol lethality assay (MTZ), anticonvulsant activity; conditions: Mus musculus, po
Procedure: as §1
Groups of male mice (Charles River, CD-1), weighing 18 to 30 grams are employed in the Metrazol lethality assay. Test compounds are dissolved in distilled water or if insoluble, suspended in water, to which a surfactant, such as Tween-80 is added. The test compounds are administered orally, the administered dose being dissolved or suspended in 10 ml of solution or suspension per kg of animal body weight. Control animals (2 mice/group) receive water or water and Tween-80, i.e., the vehicle for administration of the test compound. Metrazol (pentylenetetrazol) is dissolved in water (concentration 225 mg of Metrazol/10 ml of solution), and the solution is administered subcutaneously to groups of five animals each at one or more time intervals of 15, 30, 60, 90, or 120 minutes after administration of the test compound. The number of animal alive 15 minutes after treatment with Metrazol is determined and recorded. The following formula is employed to calculate the percent protection against Metrazol lethality. [formula]
A dose range determination is performed by substantially the same procedure as the time response determination. In the dose range determination, five groups of 10 animals per group are employed. This determination is generally reserved for those compounds which protect against lethality by greater than 70% at the screening dose employed.
as §2

Compound	Analgesic Activity: % Inhibition of writhing at a screening dose of 20 mg/kg, s.c. (mice [1]) [%]	ED50 (mice [2]) [mg/kg]	ED50 (mice [3]) [mg/kg]
CC(=O)N1CCC(Oc2cccc(Cl)c2)(c2ccccc2)CC1 [1-Acetyl-4-(3-chlorophenoxy)-4-phenylpiperidine]	33	55.4	
CC(=O)N1CCC(Oc2ccc(C(F)(F)F)cc2)(c2ccccc2)CC1 [1-Acetyl-4-phenyl-4-(4-trifluoromethylphenoxy)piperidine]	32	32.1	44.8
NC(=O)N1CCC(Oc2ccc([N+](=O)[O-])cc2)(c2ccccc2)CC1 [1-Aminocarbonyl-4-(4-nitrophenoxy)-4-phenylpiperidine]	42		
CC(=O)N1CCC(Oc2cccc(C(F)(F)F)c2)(c2ccccc2)CC1 [1-Acetyl-4-phenyl-4-(3-trifluoromethylphenoxy)piperidine]	48		
CCC1(c2ccccc2)C(=O)NC(=O)NC1=O [phenobarbital, reference compound]		8.4	
CNC(=O)N1CCC(Oc2ccc(C(F)(F)F)cc2)(c2ccccc2)CC1 [1-(N-Methylamino)carbonyl-4-phenyl-4-(4-trifluoromethylphenoxy)piperidine]			41.2
CNC(=O)N1CCC(Oc2ccc([N+](=O)[O-])cc2)(c2ccccc2)CC1 [1-(N-Methylamino)carbonyl-4-(4-nitrophenoxy)-4-phenylpiperidine]	34		55.2
CC(=O)N1CCC(Oc2c(F)c(F)c(F)c(F)c2F)(c2ccccc2)CC1 [1-Acetyl-4-(2,3,4,5,6-pentafluorophenoxy)-4-phenylpiperidine]	38		60.5
O=C(Cn1ccnc1)N1CCC(Oc2c(F)c(F)c(F)c(F)c2F)(c2ccccc2)CC1 [1-[2-(Imidazol-1-yl)acetyl]-4-(2,3,4,5,6-pentafluorophenoxy)-4-phenylpiperidine]			38
CNC(=O)N1CCC(Oc2cccc(C(F)(F)F)c2)(c2ccccc2)CC1 [1-(N-Methylamino)carbonyl-4-phenyl-4-(3-trifluoromethylphenoxy)piperidine]		43.5	
CC(=O)Oc1ccccc1C(=O)O [asprin, reference compound]	33		
CNC(=O)N1CCC(Oc2c(F)c(F)c(F)c(F)c2F)(c2ccccc2)CC1 [1-(N-Methylamino)carbonyl-4-(2,3,4,5,6-pentafluorophenoxy)-4-phenylpiperidine]			64.3
